Test results reported in article PMC8617627, “Novel DYRK1A Inhibitor Rescues Learning and Memory Deficits in a Mouse Model of Down Syndrome” (Pharmaceuticals, 2021).
Where two headings read alike, the source gives them in different places.

Key:
Assay in all cases: Kinase profile (33P ATP filter binding)
Format in all cases: biochemical
Details in all cases: read-out: Remaining protein kinase activity
[1] = molecular target: T1, IKKb (Homo sapiens, UniProt O14920)
T1 sequence (O14920 1-756): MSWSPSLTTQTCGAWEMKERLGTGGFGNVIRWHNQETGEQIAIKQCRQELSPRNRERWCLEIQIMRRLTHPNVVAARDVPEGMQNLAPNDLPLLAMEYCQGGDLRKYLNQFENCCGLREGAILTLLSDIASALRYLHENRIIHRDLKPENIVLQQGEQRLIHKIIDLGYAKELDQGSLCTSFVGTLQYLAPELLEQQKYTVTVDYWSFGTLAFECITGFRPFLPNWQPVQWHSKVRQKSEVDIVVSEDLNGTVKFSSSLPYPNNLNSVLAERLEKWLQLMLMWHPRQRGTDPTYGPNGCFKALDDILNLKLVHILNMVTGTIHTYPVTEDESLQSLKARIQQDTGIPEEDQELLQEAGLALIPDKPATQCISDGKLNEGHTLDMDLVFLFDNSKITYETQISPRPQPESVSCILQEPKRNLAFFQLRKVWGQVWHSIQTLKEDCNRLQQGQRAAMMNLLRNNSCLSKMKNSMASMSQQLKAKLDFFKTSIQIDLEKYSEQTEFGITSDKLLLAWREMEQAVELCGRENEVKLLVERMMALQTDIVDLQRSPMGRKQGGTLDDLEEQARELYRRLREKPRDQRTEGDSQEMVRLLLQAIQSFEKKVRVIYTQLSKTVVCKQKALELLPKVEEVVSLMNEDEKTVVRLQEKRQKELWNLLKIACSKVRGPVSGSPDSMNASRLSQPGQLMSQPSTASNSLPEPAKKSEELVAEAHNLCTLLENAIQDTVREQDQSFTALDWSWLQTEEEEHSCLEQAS

[2] = molecular target: T2, IKKe (Homo sapiens, UniProt Q14164)
T2 sequence (Q14164 1-716): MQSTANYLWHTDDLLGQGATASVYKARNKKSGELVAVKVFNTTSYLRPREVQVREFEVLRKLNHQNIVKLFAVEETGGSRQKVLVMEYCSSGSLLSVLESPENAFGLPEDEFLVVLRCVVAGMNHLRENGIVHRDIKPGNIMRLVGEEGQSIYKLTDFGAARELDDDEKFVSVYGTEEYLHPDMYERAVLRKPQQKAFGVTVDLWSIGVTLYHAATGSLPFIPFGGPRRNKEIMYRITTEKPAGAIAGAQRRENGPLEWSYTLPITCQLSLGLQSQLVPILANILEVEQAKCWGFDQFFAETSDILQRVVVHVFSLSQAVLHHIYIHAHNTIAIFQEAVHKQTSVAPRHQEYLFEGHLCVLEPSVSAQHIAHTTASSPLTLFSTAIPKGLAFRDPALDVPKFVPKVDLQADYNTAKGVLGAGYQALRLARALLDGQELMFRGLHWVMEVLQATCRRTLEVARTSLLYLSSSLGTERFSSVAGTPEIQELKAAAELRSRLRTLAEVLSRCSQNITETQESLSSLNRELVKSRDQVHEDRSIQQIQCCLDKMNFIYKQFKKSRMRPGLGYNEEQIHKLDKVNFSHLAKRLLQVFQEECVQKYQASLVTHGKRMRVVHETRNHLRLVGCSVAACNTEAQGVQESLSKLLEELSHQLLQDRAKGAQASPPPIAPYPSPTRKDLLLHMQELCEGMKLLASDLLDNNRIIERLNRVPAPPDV

[3] = molecular target: MARK1 (Homo sapiens, UniProt Q9P0L2)
[4] = molecular target: MNK1 (Homo sapiens, UniProt Q9BUB5)
[5] = molecular target: ROCK 2 (Homo sapiens, UniProt O75116)
[6] = molecular target: T3, TTK (Homo sapiens, UniProt P33981)
T3 sequence (P33981 1-857): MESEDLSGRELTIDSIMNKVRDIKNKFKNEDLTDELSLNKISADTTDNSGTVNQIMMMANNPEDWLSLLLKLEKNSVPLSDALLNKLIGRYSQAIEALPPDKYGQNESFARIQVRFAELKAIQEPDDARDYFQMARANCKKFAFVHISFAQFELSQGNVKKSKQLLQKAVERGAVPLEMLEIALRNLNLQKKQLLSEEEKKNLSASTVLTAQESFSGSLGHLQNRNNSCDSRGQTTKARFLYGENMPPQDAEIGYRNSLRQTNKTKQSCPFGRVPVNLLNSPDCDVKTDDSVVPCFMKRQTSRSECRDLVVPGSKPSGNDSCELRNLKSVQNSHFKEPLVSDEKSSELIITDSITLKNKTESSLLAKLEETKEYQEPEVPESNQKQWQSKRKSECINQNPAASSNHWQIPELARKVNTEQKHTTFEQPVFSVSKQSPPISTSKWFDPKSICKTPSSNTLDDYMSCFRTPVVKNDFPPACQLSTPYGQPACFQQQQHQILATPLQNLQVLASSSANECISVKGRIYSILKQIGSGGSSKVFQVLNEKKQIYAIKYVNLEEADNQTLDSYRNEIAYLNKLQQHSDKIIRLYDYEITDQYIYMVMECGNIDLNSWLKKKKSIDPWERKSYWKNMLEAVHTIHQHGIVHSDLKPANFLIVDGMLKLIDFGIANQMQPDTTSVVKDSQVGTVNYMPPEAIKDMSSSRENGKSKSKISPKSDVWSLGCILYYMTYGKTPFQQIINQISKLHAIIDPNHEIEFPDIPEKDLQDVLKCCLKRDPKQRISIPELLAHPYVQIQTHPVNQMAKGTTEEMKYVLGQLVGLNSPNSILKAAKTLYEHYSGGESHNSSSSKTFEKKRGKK

Chain of MNK1 (Q9BUB5 whole entry): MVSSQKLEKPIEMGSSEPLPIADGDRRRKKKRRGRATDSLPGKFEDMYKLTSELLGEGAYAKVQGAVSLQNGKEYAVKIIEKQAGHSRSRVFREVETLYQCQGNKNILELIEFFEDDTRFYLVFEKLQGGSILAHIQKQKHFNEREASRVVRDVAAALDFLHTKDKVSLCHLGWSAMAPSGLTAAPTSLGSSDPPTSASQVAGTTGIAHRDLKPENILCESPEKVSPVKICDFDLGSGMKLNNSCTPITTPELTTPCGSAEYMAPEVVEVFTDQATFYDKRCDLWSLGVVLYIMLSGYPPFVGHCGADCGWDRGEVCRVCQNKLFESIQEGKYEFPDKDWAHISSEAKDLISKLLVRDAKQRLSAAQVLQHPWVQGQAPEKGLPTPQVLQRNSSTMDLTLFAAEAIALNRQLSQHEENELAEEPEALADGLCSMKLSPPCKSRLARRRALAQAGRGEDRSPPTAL
Chain of MARK1 (Q9P0L2 whole entry): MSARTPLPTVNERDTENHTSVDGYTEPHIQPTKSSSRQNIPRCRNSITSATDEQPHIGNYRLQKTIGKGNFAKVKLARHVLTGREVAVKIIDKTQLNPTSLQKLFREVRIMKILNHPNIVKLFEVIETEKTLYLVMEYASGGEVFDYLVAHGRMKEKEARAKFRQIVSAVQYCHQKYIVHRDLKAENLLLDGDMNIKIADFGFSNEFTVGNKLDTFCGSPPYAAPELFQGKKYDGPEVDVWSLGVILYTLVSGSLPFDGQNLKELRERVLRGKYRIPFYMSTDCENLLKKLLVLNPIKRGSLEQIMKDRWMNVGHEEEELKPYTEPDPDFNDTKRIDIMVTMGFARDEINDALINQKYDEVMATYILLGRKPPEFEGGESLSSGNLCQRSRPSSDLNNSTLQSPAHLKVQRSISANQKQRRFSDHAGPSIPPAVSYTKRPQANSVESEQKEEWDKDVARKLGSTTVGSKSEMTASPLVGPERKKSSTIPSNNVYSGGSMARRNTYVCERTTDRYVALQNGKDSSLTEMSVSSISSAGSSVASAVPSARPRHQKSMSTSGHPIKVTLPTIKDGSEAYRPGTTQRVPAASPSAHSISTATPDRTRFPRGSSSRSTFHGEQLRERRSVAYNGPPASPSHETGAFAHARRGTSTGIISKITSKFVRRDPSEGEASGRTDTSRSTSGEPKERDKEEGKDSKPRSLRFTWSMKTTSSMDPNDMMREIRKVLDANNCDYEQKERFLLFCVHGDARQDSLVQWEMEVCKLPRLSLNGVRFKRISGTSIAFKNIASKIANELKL
Chain of ROCK 2 (O75116 whole entry, species assumed): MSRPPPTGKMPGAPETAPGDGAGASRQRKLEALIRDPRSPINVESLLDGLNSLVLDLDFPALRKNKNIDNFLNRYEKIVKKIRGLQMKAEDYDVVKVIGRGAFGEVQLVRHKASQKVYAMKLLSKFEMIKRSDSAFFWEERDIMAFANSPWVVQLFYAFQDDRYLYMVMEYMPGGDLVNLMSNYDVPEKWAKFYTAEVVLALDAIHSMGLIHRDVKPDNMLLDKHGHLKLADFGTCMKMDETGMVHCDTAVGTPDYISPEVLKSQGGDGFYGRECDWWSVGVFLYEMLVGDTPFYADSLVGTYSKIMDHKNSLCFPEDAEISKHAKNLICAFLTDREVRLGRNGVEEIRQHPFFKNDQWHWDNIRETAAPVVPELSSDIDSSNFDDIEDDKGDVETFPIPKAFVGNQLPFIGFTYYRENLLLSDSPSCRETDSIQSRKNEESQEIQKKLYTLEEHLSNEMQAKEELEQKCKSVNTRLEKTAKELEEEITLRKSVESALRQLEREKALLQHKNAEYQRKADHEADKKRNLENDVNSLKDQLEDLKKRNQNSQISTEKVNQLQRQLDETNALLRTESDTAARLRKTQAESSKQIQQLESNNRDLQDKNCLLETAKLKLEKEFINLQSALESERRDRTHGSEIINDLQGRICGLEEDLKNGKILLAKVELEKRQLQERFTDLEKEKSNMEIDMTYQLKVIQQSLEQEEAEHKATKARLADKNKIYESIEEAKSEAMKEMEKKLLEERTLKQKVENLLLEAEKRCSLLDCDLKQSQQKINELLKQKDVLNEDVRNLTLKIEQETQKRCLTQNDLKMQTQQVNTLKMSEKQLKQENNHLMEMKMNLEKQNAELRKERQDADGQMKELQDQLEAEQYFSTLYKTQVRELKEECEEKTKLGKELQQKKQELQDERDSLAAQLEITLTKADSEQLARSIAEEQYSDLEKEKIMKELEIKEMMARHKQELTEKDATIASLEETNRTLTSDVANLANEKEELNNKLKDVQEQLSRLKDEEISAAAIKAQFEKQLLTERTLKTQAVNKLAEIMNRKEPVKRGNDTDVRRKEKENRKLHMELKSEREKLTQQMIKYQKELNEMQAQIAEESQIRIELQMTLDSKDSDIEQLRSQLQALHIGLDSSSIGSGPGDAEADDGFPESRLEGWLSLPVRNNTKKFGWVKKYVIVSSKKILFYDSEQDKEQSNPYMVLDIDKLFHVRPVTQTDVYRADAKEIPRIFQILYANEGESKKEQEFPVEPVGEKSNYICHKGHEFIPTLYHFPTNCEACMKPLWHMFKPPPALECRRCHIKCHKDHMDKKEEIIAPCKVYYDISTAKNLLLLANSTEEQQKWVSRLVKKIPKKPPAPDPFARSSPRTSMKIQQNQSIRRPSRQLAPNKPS

Q: Which results are given for `COc1ccc2sc(-c3cncc(NC(C)=O)c3)nc2c1` [PST-001, N-(5-(5-Methoxybenzo[d]thiazol-2-yl)pyridin-3-yl)acetamide]?
A: remaining activity at 1 µM [1]: 111%; remaining activity at 100 µM [1]: 108%; remaining activity at 1 µM [2]: 105%; remaining activity at 100 µM [2]: 122%; remaining activity at 1 µM [3]: 122%; remaining activity at 100 µM [3]: 110%; remaining activity at 1 µM [4]: 111%; remaining activity at 100 µM [4]: 94%; remaining activity at 1 µM [5]: 110%; remaining activity at 100 µM [5]: 64%; remaining activity at 1 µM [6]: 88%; remaining activity at 100 µM [6]: 69%

Q: What does the source list for `COc1ccc2sc(-c3cncc(N)c3)nc2c1` [compound 1, 5-(5-Methoxybenzo[d]thiazol-2-yl)pyridin-3-amine]?
A: remaining activity at 1 µM ([1]; IKKb, 1 μM): 105%; remaining activity at 100 µM ([1]; IKKb, 100 μM): 38%; remaining activity at 1 µM ([2]; IKKe, 1 μM): 110%; remaining activity at 100 µM ([2]; IKKe, 100 μM): 55%; remaining activity at 1 µM ([3]; MARK1, 1 μM): 122%; remaining activity at 100 µM ([3]; MARK1, 100 μM): 69%; remaining activity at 1 µM ([4]; MNK1, 1 μM): 97%; remaining activity at 100 µM ([4]; MNK1, 100 μM): 20%; remaining activity at 1 µM ([5]; ROCK 2, 1 μM): 108%; remaining activity at 100 µM ([5]; ROCK 2, 100 μM): 5%; remaining activity at 1 µM ([6]; TTK, 1 μM): 86%; remaining activity at 100 µM ([6]; TTK, 100 μM): 47%
